Assay results taken from patent US20100273787A1, “KYNURENINE-AMINOTRANSFERASE INHIBITORS” (priority 2007, published 2010).

Legend:
[1] = molecular target: Human recombinant KAT II protein (Homo sapiens, UniProt Q8N5Z0); test: KAT II activity, human recombinant protein ([3H]-kynurenine to [3H]-KYNA); format: biochemical
Protocol: (§1) For the measurement of KAT II activity, 100 μl of partially purified rat liver enzyme were incubated (2 hrs, 37° C.) with 100 μl of 150 mM Tris-acetate (pH 7.0), 2 μM (2.5 nCi) [^3H]-kynurenine, 1 mM pyruvate and 80 μM pyridoxal-5′-phosphate. Blanks were obtained using denatured protein preparations. The reaction was terminated by the addition of […] of 30% (w/v) trichloroacetic acid. 1 ml of 0.1 M HCl was added, and the denatured protein was removed by centrifugation. 1 ml of the supernatant was applied to a Dowex 50 W H^+cation exchange column, which was then washed with 1 ml of 0.1 M HCl, followed by 1 ml of ultrapure water. [^3H]-KYNA was subsequently eluted with 2×1 ml of ultrapure water, and radioactivity was quantified by liquid scintillation spectrometry. Human recombinant KAT II protein was also used to measure KAT II activity as described above.
(§2) Test compounds were added in 20 μl aliquots at the beginning of the incubation period to examine interference with enzyme activity.

[2] = molecular target: T1, KAT II (partially purified rat liver enzyme) (Rattus norvegicus, UniProt Q64602); test: KAT II activity, partially purified rat liver enzyme ([3H]-kynurenine to [3H]-KYNA); format: biochemical
T1 construct: partially purified rat liver enzyme; from tissue; host or cells: rat liver
Protocol: as §1, §2

[3] = molecular target: T2, Kynurenine 3-hydroxylase (Rattus norvegicus, UniProt O88867); test: Kynurenine 3-hydroxylase activity in rat liver homogenate; format: biochemical
T2 construct: determined in rat liver homogenate; from tissue; host or cells: rat liver homogenate
Protocol: (§3) Kynurenine 3-hydroxylase and kynureninase activities were determined in rat liver homogenate according to established procedures (see Anal. Biochem., 205:257-62, 1992 and Neuroscience., 61:237-43, 1994 for methodology).

[4] = molecular target: T3, Kynureninase (Rattus norvegicus, UniProt P70712); test: Kynureninase activity in rat liver homogenate; format: biochemical
T3 construct: determined in rat liver homogenate; from tissue; host or cells: rat liver homogenate
T3 sequence (P70712 1-464): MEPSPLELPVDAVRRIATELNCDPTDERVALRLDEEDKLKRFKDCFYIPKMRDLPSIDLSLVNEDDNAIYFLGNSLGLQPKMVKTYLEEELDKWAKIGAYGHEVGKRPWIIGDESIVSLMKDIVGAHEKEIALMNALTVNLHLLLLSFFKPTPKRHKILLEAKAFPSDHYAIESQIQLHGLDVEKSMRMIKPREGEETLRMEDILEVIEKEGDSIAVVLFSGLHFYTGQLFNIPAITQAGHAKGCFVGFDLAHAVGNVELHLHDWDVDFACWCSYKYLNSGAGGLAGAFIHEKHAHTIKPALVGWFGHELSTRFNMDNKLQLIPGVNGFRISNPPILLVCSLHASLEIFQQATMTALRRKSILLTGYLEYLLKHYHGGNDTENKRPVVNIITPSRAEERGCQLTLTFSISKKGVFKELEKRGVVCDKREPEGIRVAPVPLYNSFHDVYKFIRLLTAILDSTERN
Protocol: as §3

[5] = test system: KYNA production in rat brain tissue slices; test: De novo production of KYNA in rat brain tissue slices; format: cell-based; details: 6 hr at 37 degrees, FIG. 1
Protocol: The ability of Compound (A) to inhibit the de novo production of KYNA in rat brain tissue slices was also tested. A 2 μM concentration of Compound (A) was assayed as described by Gramsbergen J B, Hodgkins P S, Rassoulpour A, Turski W A, Guidetti P, Schwarcz R., (J. Neurochem., 69:290, 1997). Briefly, an aliquot of the original tissue homogenate was further diluted (1:5, v/v) in a buffer containing 5 mM Tris acetate (pH 8.0), 50 μM pyridoxal-5′-phosphate and 10 mM 2-mercapto-ethanol, and dialyzed overnight at 4 degrees. The reaction mixture containing 150 mM Tris-acetate buffer (pH 7.0), 2 μM L-kynurenine, 1 mM pyruvate, 80 μM pyridoxal-5′-phosphate and 80 μL dialysate in a total volume of […] was incubated w/wo Compound (A) for 6 hr at 37 degrees. The reaction was terminated by adding […] of 50% (w/v) trichloracetic acid and KYNA levels were measured using reverse-phase HPLC with fluorescence detection (excitation, 344 nm; emission, 398 nm).

[6] = test system: extracellular kynurenic acid (KYNA) and dopamine (DA) levels in prefrontal cortex; test: In vivo reverse dialysis / microdialysis in rat prefrontal cortex; details: 1 mM into prefrontal cortex for 2 hours by reverse dialysis, FIG. 2
Protocol: Microdialysis was performed in the prefrontal cortex of unanesthetized male rats (200-220 g) according to established procedures (see Eur. J. Neurosci., 4:1264-70, 1992 for methodology).
Compound (A) was also tested in the rat brain in vivo. Briefly, a concentration of 1 mM Compound (A) was introduced into the prefrontal cortex for 2 hours by reverse dialysis. A detailed description of this method can be found in J Neurosci Res 85(4):845-54, 2007 (Ceresoli-Borroni G, Guidetti P, Amori L, Pellicciari R, Schwarcz R).

Human recombinant KAT II protein, sequence (Q8N5Z0 30-425): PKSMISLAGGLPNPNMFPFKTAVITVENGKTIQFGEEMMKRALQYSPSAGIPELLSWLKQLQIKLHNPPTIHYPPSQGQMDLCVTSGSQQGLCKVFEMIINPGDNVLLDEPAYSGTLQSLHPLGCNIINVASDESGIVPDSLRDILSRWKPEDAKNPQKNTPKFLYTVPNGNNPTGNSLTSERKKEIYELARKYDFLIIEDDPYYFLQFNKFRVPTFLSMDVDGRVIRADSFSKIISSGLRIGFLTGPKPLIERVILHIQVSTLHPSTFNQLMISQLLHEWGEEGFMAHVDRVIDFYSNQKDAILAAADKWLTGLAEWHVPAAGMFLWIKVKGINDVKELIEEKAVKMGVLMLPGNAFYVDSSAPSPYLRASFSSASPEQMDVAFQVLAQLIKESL
T1 sequence (Q64602 30-425): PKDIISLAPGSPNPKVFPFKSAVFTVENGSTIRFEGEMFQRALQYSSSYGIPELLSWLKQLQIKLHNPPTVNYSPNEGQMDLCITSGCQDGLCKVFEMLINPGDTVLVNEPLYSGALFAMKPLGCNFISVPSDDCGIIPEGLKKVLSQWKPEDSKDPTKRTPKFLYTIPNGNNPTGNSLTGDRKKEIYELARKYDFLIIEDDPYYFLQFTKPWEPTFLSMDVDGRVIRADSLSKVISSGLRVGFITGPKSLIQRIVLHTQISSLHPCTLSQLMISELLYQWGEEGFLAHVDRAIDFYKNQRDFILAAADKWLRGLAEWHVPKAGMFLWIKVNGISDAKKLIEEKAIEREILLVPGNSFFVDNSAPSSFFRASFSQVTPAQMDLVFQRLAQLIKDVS
T2 sequence (O88867 whole entry): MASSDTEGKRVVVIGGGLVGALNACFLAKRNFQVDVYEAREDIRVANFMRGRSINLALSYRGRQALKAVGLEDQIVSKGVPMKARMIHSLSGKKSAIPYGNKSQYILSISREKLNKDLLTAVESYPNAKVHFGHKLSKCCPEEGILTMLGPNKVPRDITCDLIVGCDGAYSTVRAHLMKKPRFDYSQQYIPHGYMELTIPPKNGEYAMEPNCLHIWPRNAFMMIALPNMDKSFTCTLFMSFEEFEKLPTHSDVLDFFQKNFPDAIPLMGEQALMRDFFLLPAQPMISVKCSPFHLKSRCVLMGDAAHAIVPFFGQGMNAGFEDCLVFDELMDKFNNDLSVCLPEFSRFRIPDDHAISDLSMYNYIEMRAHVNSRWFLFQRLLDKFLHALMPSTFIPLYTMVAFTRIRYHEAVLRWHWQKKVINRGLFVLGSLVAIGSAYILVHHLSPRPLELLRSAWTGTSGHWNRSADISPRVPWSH

IC50 ([1]; human recombinant protein): 0.2 µM | times more active against human KAT II than against rat KAT II ([1]; human vs rat KAT II): 10 times | times more active than UPF 874 as a KAT II inhibitor in humans ([1]; relative to UPF 874): 3000 times | IC50 [2]: 2 µM | IC50 [3]: > 1000 µM | IC50 [4]: > 2000 µM
Compound: C[C@H]1COc2c(N3CCN(N)CC3)c(F)cc3c(=O)c(C(=O)O)cn1c23.O=C(O)C(F)(F)F [Compound (A), (S)-(−)-9-(4-Aminopiperazin-1-yl)-8-fluoro-3-methyl-6-oxo-2,3-dihydro-6H-1-oxa-3a-aza-phenalene-5-carboxylic acid trifluoroacetate]
inhibition of de novo production of KYNA from L-kynurenine [5]: dose-dependently inhibit | increase of extracellular dopamine (DA) levels [6]: > 2.5 fold | reduction of extracellular kynurenic acid (KYNA) levels [6]: ~40%
